In patent US8975398B2, “NAMPT inhibitors” (AbbVie Inc., priority 2012, dated 2015):

Key:
[1] = molecular target: NAMPT (human, recombinant, C-terminally His-tagged) (Homo sapiens, UniProt P43490); experiment: Time-Resolved Fluorescence Resonance Energy Transfer (TR-FRET) Binding Assay of NAMPT; settings: 6.8 nM NAMPT, 200 nM probe, equilibrated 3 hours, absence of substrates
Method in brief: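 Recombinant C-terminally His-tagged human NAMPT (6.8 nM) incubated 3 h at room temperature with 200 nM Oregon Green 488–labelled nicotinamide-competitive probe and 1 nM Tb-anti-His antibody in HEPES pH 7.5, 2% DMSO. TR-FRET ratio Em520/Em495 normalized to controls; IC50 from four-parameter logistic fit.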

NAMPT = NAMPT (Homo sapiens, UniProt P43490); experiment: Time-Resolved Fluorescence Resonance Energy Transfer (TR-FRET) Binding Assay of NAMPT with PRPP; settings: 2 nM NAMPT, 2 nM probe, 200 uM PRPP and 2.5 mM ATP, equilibrated 16 hours
Method in brief: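 Final mix: 2 nM NAMPT, 2 nM probe, 1 nM Tb-anti-His antibody, 200 uM PRPP, 2.5 mM ATP, 2% DMSO in 1× assay buffer. Equilibrated 16 hours before TR-FRET read, allowing possible enzymatic modification of compounds.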

Chain of NAMPT (human, recombinant, C-terminally His-tagged) (P43490 whole entry): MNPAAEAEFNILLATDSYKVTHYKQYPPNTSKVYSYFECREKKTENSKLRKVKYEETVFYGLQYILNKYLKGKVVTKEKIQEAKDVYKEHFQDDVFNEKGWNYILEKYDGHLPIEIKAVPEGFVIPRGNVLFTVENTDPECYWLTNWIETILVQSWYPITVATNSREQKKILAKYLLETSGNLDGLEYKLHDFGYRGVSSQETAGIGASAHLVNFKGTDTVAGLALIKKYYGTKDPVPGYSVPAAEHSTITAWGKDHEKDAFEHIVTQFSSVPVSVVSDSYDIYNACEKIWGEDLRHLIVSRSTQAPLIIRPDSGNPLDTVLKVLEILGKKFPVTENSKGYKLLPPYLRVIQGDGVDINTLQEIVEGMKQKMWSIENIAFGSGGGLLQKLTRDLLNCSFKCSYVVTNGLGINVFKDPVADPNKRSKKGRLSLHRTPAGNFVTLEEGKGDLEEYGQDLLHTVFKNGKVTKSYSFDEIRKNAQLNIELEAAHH
Chain of NAMPT (P43490 whole entry): as above

SMILES | IC50 [1] | IC50 (NAMPT)
O=C(Nc1ccc(OC2CCN(C(=O)Cc3ccc(F)cc3F)CC2)cc1)C1CN(c2cccnn2)C1 [Example 236, N-[4-({1-[(2,4-difluorophenyl)acetyl]piperidin-4-yl}oxy)phenyl]-1-(pyridazin-3-yl)azetidine-3-carboxamide] | 130 nM | 1.11 nM
O=C(Nc1ccc(C2CCN(C(=O)CC3CCCCC3)CC2)cc1)C1CN(c2cccnn2)C1 [Example 340, N-{4-[1-(cyclohexylacetyl)piperidin-4-yl]phenyl}-1-(pyridazin-3-yl)azetidine-3-carboxamide] | 17.6 nM | 0.722 nM
Cc1ncccc1N1CC(C(=O)Nc2ccc(C3CCN(C(=O)C4CCCCC4)CC3)cc2)C1 [Example 196, N-{4-[1-(cyclohexylcarbonyl)piperidin-4-yl]phenyl}-1-(2-methylpyridin-3-yl)azetidine-3-carboxamide] | 83.8 nM | 98.5 nM
O=C(Nc1ccc(OC2CCN(C(=O)c3ccc(F)cc3)CC2)cc1)C1CN(c2cccnn2)C1 [Example 230, N-(4-{[1-(4-fluorobenzoyl)piperidin-4-yl]oxy}phenyl)-1-(pyridazin-3-yl)azetidine-3-carboxamide] | 158 nM | 0.843 nM
CC(C)CC(=O)N1CCC(c2ccc(NC(=O)C3CN(c4cccnn4)C3)cc2)CC1 [Example 320, N-{4-[1-(3-methylbutanoyl)piperidin-4-yl]phenyl}-1-(pyridazin-3-yl)azetidine-3-carboxamide] | 26.4 nM | 0.611 nM
O=C(Nc1ccc(OC2CN(C(=O)c3ccc(C(F)(F)F)cc3)C2)cc1)C1CN(c2ccnnc2)C1 [Example 205, 1-(pyridazin-4-yl)-N-[4-({1-[4-(trifluoromethyl)benzoyl]azetidin-3-yl}oxy)phenyl]azetidine-3-carboxamide] | 25.1 nM | 34 nM
CC(C)CCC(=O)N1CC(Oc2ccc(NC(=O)C3CN(c4ccnnc4)C3)cc2)C1 [Example 263, N-(4-{[1-(4-methylpentanoyl)azetidin-3-yl]oxy}phenyl)-1-(pyridazin-4-yl)azetidine-3-carboxamide] | 31.3 nM | 20.2 nM
CCCC(C)CN1CCC(Oc2ccc(NC(=O)C3CN(c4cccnc4)C3)cc2)CC1 (centres unmarked) [Example 75, N-(4-{[1-(2-methylpentyl)piperidin-4-yl]oxy}phenyl)-1-(pyridin-3-yl)azetidine-3-carboxamide] | 1340 nM | 0.719 nM
O=C(Nc1ccc(C2CCN(C(=O)CC[N+](=O)[O-])CC2)cc1)C1CN(c2cccnn2)C1 [Example 336, N-{4-[1-(3-nitropropanoyl)piperidin-4-yl]phenyl}-1-(pyridazin-3-yl)azetidine-3-carboxamide] | 77.3 nM | 0.494 nM
O=C(Nc1ccc(OC2CCN(C(=O)CC3CCOCC3)CC2)cc1)C1CN(c2cccnc2C(F)(F)F)C1 [Example 3, N-(4-{[1-(tetrahydro-2H-pyran-4-ylacetyl)piperidin-4-yl]oxy}phenyl)-1-[2-(trifluoromethyl)pyridin-3-yl]azetidine-3-carboxamide] | 357 nM | 19.2 nM
O=C(Nc1ccc(OC2CCN(C(=O)Cc3cc(F)cc(F)c3)CC2)cc1)C1CN(c2cccnn2)C1 [Example 239, N-[4-({1-[(3,5-difluorophenyl)acetyl]piperidin-4-yl}oxy)phenyl]-1-(pyridazin-3-yl)azetidine-3-carboxamide] | 112 nM | 0.833 nM
CC(C)Cn1cc(-c2ccc(C(=O)NC3CN(c4cccnn4)C3)o2)cn1 [Example 309, 5-[1-(2-methylpropyl)-1H-pyrazol-4-yl]-N-[1-(pyridazin-3-yl)azetidin-3-yl]furan-2-carboxamide] | 4150 nM | 0.293 nM
Cc1cc(C)cc(CC(=O)N2CCC(c3ccc(NC(=O)C4CN(c5cccnn5)C4)cc3)CC2)c1 [Example 372, N-(4-{1-[(3,5-dimethylphenyl)acetyl]piperidin-4-yl}phenyl)-1-(pyridazin-3-yl)azetidine-3-carboxamide] | 16.6 nM | 0.633 nM
O=C(Nc1ccc(C2CCN(C(=O)CN3CCCC3)CC2)cc1)C1CN(c2cccnc2)C1 [Example 105, 1-(pyridin-3-yl)-N-{4-[1-(pyrrolidin-1-ylacetyl)piperidin-4-yl]phenyl}azetidine-3-carboxamide] | 296 nM | 0.244 nM
CC(=O)N1CCC(Oc2ccc(NC(=O)C3CN(c4cccnc4)C3)cc2)CC1 [Example 56, N-{4-[(1-acetylpiperidin-4-yl)oxy]phenyl}-1-(pyridin-3-yl)azetidine-3-carboxamide] | 360 nM | 0.812 nM
Cc1cnc(C(=O)N2CCC(c3ccc(NC(=O)C4CN(c5cccnn5)C4)cc3)CC2)cn1 [Example 378, N-(4-{1-[(5-methylpyrazin-2-yl)carbonyl]piperidin-4-yl}phenyl)-1-(pyridazin-3-yl)azetidine-3-carboxamide] | 77.1 nM | 0.632 nM

SMILES | IC50 [1] | IC50 (NAMPT)
CC(C)C(C)C(=O)N1CCC(c2ccc(NC(=O)C3CN(c4cccnn4)C3)cc2)CC1 (centres unmarked) [Example 326, N-{4-[1-(2,3-dimethylbutanoyl)piperidin-4-yl]phenyl}-1-(pyridazin-3-yl)azetidine-3-carboxamide] | 18.3 nM | 0.626 nM
CCCCC(=O)N1CCC(c2ccc(NC(=O)C3CN(c4cccnn4)C3)cc2)CC1 [Example 318, N-[4-(1-pentanoylpiperidin-4-yl)phenyl]-1-(pyridazin-3-yl)azetidine-3-carboxamide] | 37.7 nM | 0.716 nM
CC(C)(O)C(=O)N1CCC(Oc2ccc(C(=O)NC3CN(c4cccnc4)C3)cc2)CC1 [Example 24, 4-{[1-(2-hydroxy-2-methylpropanoyl)piperidin-4-yl]oxy}-N-[1-(pyridin-3-yl)azetidin-3-yl]benzamide] | 5880 nM | 0.861 nM
O=C(Nc1ccc(C2CCN(C(=O)[C@@H]3CCCO3)CC2)cc1)C1CN(c2cccnc2)C1 [Example 10, 1-(pyridin-3-yl)-N-(4-{1-[(2S)-tetrahydrofuran-2-ylcarbonyl]piperidin-4-yl}phenyl)azetidine-3-carboxamide] | 34.5 nM | 0.518 nM
O=C(Nc1ccc(OC2CCN(C(=O)CC3CC3)CC2)cc1)[C@H]1CCN(c2cccnc2)C1 [Example 16, (3S)-N-(4-{[1-(cyclopropylacetyl)piperidin-4-yl]oxy}phenyl)-1-(pyridin-3-yl)pyrrolidine-3-carboxamide] | 2480 nM | 4.13 nM
O=C(Nc1ccc(OC2CCN(C(=O)C3CCCC3)CC2)cc1)C1CN(c2cccnc2)C1 [Example 52, N-(4-{[1-(cyclopentylcarbonyl)piperidin-4-yl]oxy}phenyl)-1-(pyridin-3-yl)azetidine-3-carboxamide] | 51 nM | 0.696 nM
CC(C)C(=O)N1CCC(Oc2ccc(NC(=O)[C@H]3CCN(c4cccnc4)C3)cc2)CC1 [Example 12, (3S)-N-(4-{[1-(2-methylpropanoyl)piperidin-4-yl]oxy}phenyl)-1-(pyridin-3-yl)pyrrolidine-3-carboxamide] | 1410 nM | 2.05 nM
CC(C)CN1CCC(Oc2ccc(NC(=O)C3CN(c4cccnc4)C3)cc2)CC1 [Example 76, N-(4-{[1-(2-methylpropyl)piperidin-4-yl]oxy}phenyl)-1-(pyridin-3-yl)azetidine-3-carboxamide] | 1920 nM | 0.44 nM
CC(C)(C)OC(=O)N1CCC(Oc2ccc(NC(=O)[C@H]3CCN(c4cccnc4)C3)cc2)CC1 [Example 8, tert-butyl 4-[4-({[(3S)-1-(pyridin-3-yl)pyrrolidin-3-yl]carbonyl}amino)phenoxy]piperidine-1-carboxylate] | 3360 nM | 5.3 nM
O=C(Nc1ccc(OC2CCN(C(=O)c3cccs3)CC2)cc1)C1CN(c2ccnnc2)C1 [Example 303, 1-(pyridazin-4-yl)-N-(4-{[1-(thiophen-2-ylcarbonyl)piperidin-4-yl]oxy}phenyl)azetidine-3-carboxamide] | 30.9 nM | 15.5 nM
CC(C)(C)C(=O)N1CCC(c2ccc(NC(=O)C3CN(c4cccnc4)C3)cc2)CC1 [Example 125, N-{4-[1-(2,2-dimethylpropanoyl)piperidin-4-yl]phenyl}-1-(pyridin-3-yl)azetidine-3-carboxamide] | 15.4 nM | 0.518 nM
CC(=O)N1CCC(C(=O)N2CCC(c3ccc(NC(=O)C4CN(c5cccnn5)C4)cc3)CC2)CC1 [Example 383, N-(4-{1-[(1-acetylpiperidin-4-yl)carbonyl]piperidin-4-yl}phenyl)-1-(pyridazin-3-yl)azetidine-3-carboxamide] | 103 nM | 0.859 nM
O=C(Nc1ccc(OC2CCN(C(=O)c3ccc(C(F)(F)F)cc3)CC2)cc1)C1CN(c2cccnn2)C1 [Example 237, 1-(pyridazin-3-yl)-N-[4-({1-[4-(trifluoromethyl)benzoyl]piperidin-4-yl}oxy)phenyl]azetidine-3-carboxamide] | 240 nM | 1.27 nM
CC1(C(=O)N2CCC(Oc3ccc(NC(=O)C4CN(c5cccnc5)C4)cc3)CC2)CC1 [Example 66, N-[4-({1-[(1-methylcyclopropyl)carbonyl]piperidin-4-yl}oxy)phenyl]-1-(pyridin-3-yl)azetidine-3-carboxamide] | 56.6 nM | 0.535 nM
CSCC(=O)N1CCC(c2ccc(NC(=O)C3CN(c4cccnn4)C3)cc2)CC1 [Example 334, N-(4-{1-[(methylsulfanyl)acetyl]piperidin-4-yl}phenyl)-1-(pyridazin-3-yl)azetidine-3-carboxamide] | 18.2 nM | 0.578 nM
